Data taken from patent US20110218199A1, “PYRIDONEAMIDE DERIVATIVES, THEIR MANUFACTURE AND USE AS PHARMACEUTICAL AGENTS” (priority 2007, published 2011).

Biological target: T1, FAK Kinase Domain (KD) (Homo sapiens, UniProt Q05397)
T1 construct: FAK Kinase Domain (KD) from baculo Sf9 was used; made in house; host or cells: baculovirus / Sf9 insect cells
Assay: IC50 determination for inhibitors of FAK (ELISA-type assay)
Type: biochemical
Details: FAK kinase domain from baculo Sf9, biotinylated FAK-397 peptide, 10 μM ATP, 30 min, read-out: IC50 FAK inhibition

T1 sequence (Q05397 422-680 limits assumed, species assumed): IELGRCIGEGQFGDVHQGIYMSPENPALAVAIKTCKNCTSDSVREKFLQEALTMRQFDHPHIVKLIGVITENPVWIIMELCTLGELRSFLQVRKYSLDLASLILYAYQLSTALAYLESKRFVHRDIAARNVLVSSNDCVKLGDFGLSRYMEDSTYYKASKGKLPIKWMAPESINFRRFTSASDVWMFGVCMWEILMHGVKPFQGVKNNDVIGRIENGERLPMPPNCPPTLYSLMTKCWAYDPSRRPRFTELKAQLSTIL

Row | IC50 | SMILES
1 | 216 nM | COc1ccc(NC(=O)c2c(NCCc3cccnc3)cc[nH]c2=O)cc1N1CCN(C)CC1 [Example 6aa, 2-Oxo-4-(2-pyridin-3-yl-ethylamino)-1,2-dihydro-pyridine-3-carboxylic acid [4-methoxy-3-(4-methyl-piperazin-1-yl)-phenyl]-amide]

Tested on: HCT 116 cells
Assay: CellTiter-Glo assay in HCT 116 cells (antiproliferative activity)
Type: cell-based
Details: Homo sapiens, HCT-116, 120 h, CellTiter-Glo cell viability, HCT 116 human colon carcinoma, 5 days (120 h) incubation
Excerpt: Antiproliferative Activity:
CellTiter-Glo™ Assay in HCT 116 Cells:
The CellTiter-Glo™ Luminescent Cell Viability Assay (Promega) is a homogeneous method of determining the number of viable cells in culture based on quantitation of the ATP present, which signals the presence of metabolically active cells.
HCT 116 cells (human colon carcinoma, ATCC-No. CCl-247) were cultivated in RPMI 1640 medium with GlutaMAX• I (Invitrogen, Cat-No. 61870-010), 5% Fetal Calf Serum (FCS, Sigma Cat-No. F4135 (FBS)); 100 Units/ml penicillin/100 μg/ml streptomycin (=Pen/Strep from Invitrogen Cat. No. 15140). For the assay the cells were seeded in 384 well plates, 1000 cells per well, in the same medium. The next day the test compounds were added in various concentrations ranging from 30 μM to 0.0015 μM (10 concentrations, 1:3 diluted). After 5 days the CellTiter-Glo™ assay was done according to the instructions of the manufacturer (CellTiter-Glo™ Luminescent Cell Viability Assay, from Promega). In brief: the cell-plate was equilibrated to room temperature for approximately 30 minutes and than the CellTiter-Glo™ reagent was added. The contents were carefully mixed for 15 minutes to induce cell lysis. After 45 minutes the luminescent signal was measured in Victor 2, (scanning multiwell spectrophotometer, Wallac).
1st. Day: • Medium: RPMI 1640 with GlutaMAX™ I (Invitrogen, Cat-Nr. 61870), 5% FCS (Sigma Cat.-No. F4135), Pen/Strep (Invitrogen, Cat No. 15140). • HCT116 (ATCC-No. CC1-247): 1000 cells in 60 μl per well of 384 well plate (Greiner 781098, μClear-plate white) • After seeding incubate plates 24 h at 37° C., 5% CO2
2nd. Day: Induction (Treatment with Compounds, 10 Concentrations):
In order to achieve a final concentration of 30 μM as highest concentration 3.5 μl of 10 mM compound stock solution were added directly to 163 μl media. Then step e) of the dilution procedure described below, was followed.
In order to achieve the second highest to the lowest concentrations, a serial dilution with dilution steps of 1:3 was followed according to the procedure (a-e) as described here below: • a) for the second highest concentration add 10 μl of 10 mM stock solution of compound to 20 μl dimethylsulfoxide (DMSO) • b) dilute 8×1:3 (always 10 μl to 20 μl DMSO) in this DMSO dilution row (results in 9 wells with concentrations from 3333.3 μM to 0.51 μM) • c) dilute each concentration 1: 47.6 (3.5 μl compound dilution to 163 μl media) • d) add 10 μl of every concentration to 60 μl media in the cell plate resulting in final concentration of DMSO: 0.3% in every well and resulting in 10 final concentration of compounds ranging from 30 μM to 0.0015 μM. • Each compound is tested in triplicate. • Incubate 120 h (5 days) at 37° C., 5% CO2 […]
Add 30 μl CellTiter-Glo™ Reagent (prepared from CellTiter-Glo™ Buffer and CellTiter-Glo™ Substrate (lyophilized) purchased from Promega) per well, shake 15 minutes at room temperature incubate further 45 minutes at room temperature without shaking
Victor 2 scanning multiwell spectrophotometer (Wallac), Luminescence mode (0.5 sec/read, 477 nm) Determine IC50 using a non-linear curve fit (XLfit software (ID Business Solution Ltd., Guilford, Surrey, UK))

Row | IC50 | SMILES
2 | 500 to 15000 nM | O=C(Nc1cccc(CN2CCCCC2)c1)c1c(NCCc2ccccc2)cc[nH]c1=O [Example 6t, 2-Oxo-4-phenethylamino-1,2-dihydro-pyridine-3-carboxylic acid (3-piperidin-1-ylmethyl-phenyl)-amide]
3 | 500 to 15000 nM | COc1ccc(NC(=O)c2c(NCC(C)c3ccccc3)cc[nH]c2=O)cc1N1CCN(C)CC1 (stereo not drawn) [Example 6j, 2-Oxo-4-(2-phenyl-propylamino)-1,2-dihydro-pyridine-3-carboxylic acid [4-methoxy-3-(4-methyl-piperazin-1-yl)-phenyl]-amide]
4 | 500 to 15000 nM | COc1ccc(NC(=O)c2c(NC3CCCCC3)cc[nH]c2=O)cc1N1CCN(C)CC1 [Example 6m, 4-Cyclohexylamino-2-oxo-1,2-dihydro-pyridine-3-carboxylic acid [4-methoxy-3-(4-methyl-piperazin-1-yl)-phenyl]-amide]
5 | 500 to 15000 nM | CSc1cccc(NC(=O)c2c(NCc3ccccn3)cc[nH]c2=O)c1 [Example 6s, 2-Oxo-4-[(pyridin-2-ylmethyl)-amino]-1,2-dihydro-pyridine-3-carboxylic acid (3-methylsulfanyl-phenyl)-amide]
6 | 500 to 15000 nM | CN1CCN(c2ccc(NC(=O)c3c(NCCc4ccccc4)cc[nH]c3=O)cc2)CC1 [Example 6ad, 2-Oxo-4-phenethylamino-1,2-dihydro-pyridine-3-carboxylic acid [4-(4-methyl-piperazin-1-yl)-phenyl]-amide]
7 | 500 to 15000 nM | CC(CNc1cc[nH]c(=O)c1C(=O)Nc1cccc(CN2CCCCC2)c1)c1ccccc1 (stereo not drawn) [Example 6u, 2-Oxo-4-(2-phenyl-propylamino)-1,2-dihydro-pyridine-3-carboxylic acid (3-piperidin-1-ylmethyl-phenyl)-amide]
8 | 500 to 15000 nM | COc1ccc(NC(=O)c2c(NCCc3cccc(Cl)c3)cc[nH]c2=O)cc1N1CCN(C)CC1 [Example 6o, 4-[2-(3-Chloro-phenyl)-ethylamino]-2-oxo-1,2-dihydro-pyridine-3-carboxylic acid [4-methoxy-3-(4-methyl-piperazin-1-yl)-phenyl]-amide]
9 | 500 to 15000 nM | CC(CNc1cc[nH]c(=O)c1C(=O)Nc1cccc(CN2CCCC2)c1)c1ccccc1 (stereo not drawn) [Example 6v, 2-Oxo-4-(2-phenyl-propylamino)-1,2-dihydro-pyridine-3-carboxylic acid (3-pyrrolidin-1-ylmethyl-phenyl)-amide]

More lines, now with the values behind:

Row | SMILES | IC50
10 | CN1CCN(c2ccc(NC(=O)c3c(NCc4ccccn4)cc[nH]c3=O)cc2)CC1 [Example 2s, 2-Oxo-4-[(pyridin-2-ylmethyl)-amino]-1,2-dihydro-pyridine-3-carboxylic acid [4-(4-methyl-piperazin-1-yl)-phenyl]-amide] | 500 to 15000 nM
11 | CS(=O)(=O)c1cccc(NC(=O)c2c(NC[C@@H](O)c3cccc(Cl)c3)cc[nH]c2=O)c1 [Example 4p, 4-[(S)-2-(3-Chloro-phenyl)-2-hydroxy-ethylamino]-2-oxo-1,2-dihydro-pyridine-3-carboxylic acid (3-methanesulfonyl-phenyl)-amide] | 500 to 15000 nM
12 | O=C(Nc1cccc(N2CCOCC2)c1)c1c(NC[C@@H](O)c2cccc(Cl)c2)cc[nH]c1=O [Example 4m, 4-[(S)-2-(3-Chloro-phenyl)-2-hydroxy-ethylamino]-2-oxo-1,2-dihydro-pyridine-3-carboxylic acid (3-morpholin-4-yl-phenyl)-amide] | 500 to 15000 nM
13 | CN(C)c1cccc(NC(=O)c2c(NC[C@@H](O)c3cccc(Cl)c3)cc[nH]c2=O)c1 [Example 2w, 4-[(S)-2-(3-Chloro-phenyl)-2-hydroxy-ethylamino]-2-oxo-1,2-dihydro-pyridine-3-carboxylic acid (3-dimethylamino-phenyl)-amide] | 500 to 15000 nM
14 | O=C(Nc1cccc(N2CCCCC2)c1)c1c(NCc2ccccn2)cc[nH]c1=O [Example 2o, 2-Oxo-4-[(pyridin-2-ylmethyl)-amino]-1,2-dihydro-pyridine-3-carboxylic acid (3-piperidin-1-yl-phenyl)-amide] | 500 to 15000 nM
15 | O=C(Nc1ccc(N2CCOCC2)c(F)c1)c1c(NCCc2cccc(Cl)c2)cc[nH]c1=O [Example 2a, 4-[2-(3-Chloro-phenyl)-ethylamino]-2-oxo-1,2-dihydro-pyridine-3-carboxylic acid (3-fluoro-4-morpholin-4-yl-phenyl)-amide] | 500 to 15000 nM
16 | CSc1cccc(NC(=O)c2c(NC[C@@H](O)c3cccc(Cl)c3)cc[nH]c2=O)c1 [Example 4q, 4-[(S)-2-(3-Chloro-phenyl)-2-hydroxy-ethylamino]-2-oxo-1,2-dihydro-pyridine-3-carboxylic acid (3-methylsulfanyl-phenyl)-amide] | 500 to 15000 nM
17 | CN1CCN(c2ccc(NC(=O)c3c(NCCc4cccc(Cl)c4)cc[nH]c3=O)cc2)CC1 [Example 4b, 4-[2-(3-Chloro-phenyl)-ethylamino]-2-oxo-1,2-dihydro-pyridine-3-carboxylic acid [4-(4-methyl-piperazin-1-yl)-phenyl]-amide] | 500 to 15000 nM
18 | O=C(Nc1cccc(N2CCCCC2)c1)c1c(NCCc2cccc(Cl)c2)cc[nH]c1=O [Example 2n, 4-[2-(3-Chloro-phenyl)-ethylamino]-2-oxo-1,2-dihydro-pyridine-3-carboxylic acid (3-piperidin-1-yl-phenyl)-amide] | 500 to 15000 nM
19 | CN1CCN(c2ccc(NC(=O)c3c(NCc4ccccn4)cc[nH]c3=O)cc2F)CC1 [Example 2k, 2-Oxo-4-[(pyridin-2-ylmethyl)-amino]-1,2-dihydro-pyridine-3-carboxylic acid [3-fluoro-4-(4-methyl-piperazin-1-yl)-phenyl]-amide] | 500 to 15000 nM
20 | CN1CCN(c2ccc(NC(=O)c3c(NCCc4cccc(Cl)c4)cc[nH]c3=O)cc2F)CC1 [Example 4a, 4-[2-(3-Chloro-phenyl)-ethylamino]-2-oxo-1,2-dihydro-pyridine-3-carboxylic acid [3-fluoro-4-(4-methyl-piperazin-1-yl)-phenyl]-amide] | 500 to 15000 nM
21 | COc1ccc(NC(=O)c2c(NC[C@@H](O)c3cccc(Cl)c3)cc[nH]c2=O)cc1N1CCN(C)CC1 [Example 4i, 4-[(S)-2-(3-Chloro-phenyl)-2-hydroxy-ethylamino]-2-oxo-1,2-dihydro-pyridine-3-carboxylic acid [4-methoxy-3-(4-methyl-piperazin-1-yl)-phenyl]-amide] | 500 to 15000 nM
22 | CN1CCN(c2cccc(NC(=O)c3c(NCCc4c[nH]c5ccccc45)cc[nH]c3=O)c2)CC1 [Example 4ae, 4-[2-(1H-Indol-3-yl)-ethylamino]-2-ozo-1,2-dihydro-pyridine-3-carboxylic acid [3-(4-methyl-piperazin-1-yl)-phenyl]-amide] | 500 to 15000 nM
23 | CC(=O)N1CCN(c2ccc(NC(=O)c3c(NCC(O)c4ccccc4)cc[nH]c3=O)cc2C(F)(F)F)CC1 (stereo not drawn) [Example 3, 4-(2-Hydroxy-2-phenyl-ethylamino)-2-oxo-1,2-dihydro-pyridine-3-carboxylic acid[4-(4-acetyl-piperazin-1-yl)-3-trifluoromethyl-phenyl]-amide] | 500 to 15000 nM
24 | COc1cccc(CCNc2cc[nH]c(=O)c2C(=O)Nc2cccc(N3CCN(C)CC3)c2)c1 [Example 4y, 4-[2-(3-Methoxy-phenyl)-ethylamino]-2-oxo-1,2-dihydro-pyridine-3-carboxylic acid [3-(4-methyl-piperazin-1-yl)-phenyl]-amide] | 500 to 15000 nM
